Data as given in PMC7106896, “Synthesis and biological evaluation of 2-(4-methylsulfonyl phenyl) indole derivatives: multi-target compounds with dual antimicrobial and anti-inflammatory activities” (BMC Chemistry, 2020).
Values after ≈ are worked out from the molar mass of the structure shown. Values joined by “and” are separate entries in the source; they are usually repeats but may differ in a detail not shown here. Identical values can stand only once.

What was measured:
[1] = test system: human recombinant COX-2; assay: In vitro COX inhibition colorimetric assay; type: biochemical; settings: COX-1 IC50/COX-2 IC50
[2] = test system: Pseudomonas aeruginosa (ATCC 27853); assay: Antimicrobial screening (CO-ADD), growth inhibition at single concentration; type: cell-based; settings: ATCC27853, at 32 µg/mL concentration, read-out: growth inhibition % Pa (P. aeruginosa)
Experimental: (§1) The antimicrobial study was performed by CO-ADD (The Community for Antimicrobial Drug Discovery), funded by the Wellcome Trust (UK) and The University of Queensland (Australia). Evaluation of all synthesized compounds for their antimicrobial activities was done against five pathogenic bacteria, methicillin-resistant Staphylococcus aureus (ATCC 43300) as Gram-positive bacteria, Escherichia coli (ATCC 25922), Klebsiella pneumonia (ATCC 700603), Acinetobacter baumannii (ATCC 19606) and Pseudomonas aeruginosa (ATCC 27853) as Gram-negative bacteria and antifungal activity against two pathogenic fungal strains Candida albicans (ATCC 90028) and Cryptococcus neoformans var. grubii (H99; ATCC 208821) (Table 1).

[3] = test system: methicillin-resistant Staphylococcus aureus (ATCC 43300); assay: as above; type: cell-based; settings: ATCC 43300 / MRSA, at 32 µg/mL concentration, read-out: growth inhibition % Sa (MRSA)
Experimental: as §1

[4] = test system: Klebsiella pneumonia (ATCC 700603); assay: as above; type: cell-based; settings: Klebsiella pneumoniae, ATCC700603; at 32 µg/mL concentration; read-out: growth inhibition % Kp (K. pneumoniae)
Experimental: as §1

[5] = test system: Acinetobacter baumannii (ATCC 19606); assay: as above; type: cell-based; settings: ATCC19606, at 32 µg/mL concentration, read-out: growth inhibition % Ab (A. baumannii)
Experimental: as §1

[6] = molecular target: T1, Ovine COX-1 (Ovis aries, UniProt P05979); assay: In vitro COX inhibition colorimetric assay; type: biochemical
T1 construct: purchased Cayman Chemical, Ann Arbor, MI, USA 760111
T1 sequence (P05979 25-600): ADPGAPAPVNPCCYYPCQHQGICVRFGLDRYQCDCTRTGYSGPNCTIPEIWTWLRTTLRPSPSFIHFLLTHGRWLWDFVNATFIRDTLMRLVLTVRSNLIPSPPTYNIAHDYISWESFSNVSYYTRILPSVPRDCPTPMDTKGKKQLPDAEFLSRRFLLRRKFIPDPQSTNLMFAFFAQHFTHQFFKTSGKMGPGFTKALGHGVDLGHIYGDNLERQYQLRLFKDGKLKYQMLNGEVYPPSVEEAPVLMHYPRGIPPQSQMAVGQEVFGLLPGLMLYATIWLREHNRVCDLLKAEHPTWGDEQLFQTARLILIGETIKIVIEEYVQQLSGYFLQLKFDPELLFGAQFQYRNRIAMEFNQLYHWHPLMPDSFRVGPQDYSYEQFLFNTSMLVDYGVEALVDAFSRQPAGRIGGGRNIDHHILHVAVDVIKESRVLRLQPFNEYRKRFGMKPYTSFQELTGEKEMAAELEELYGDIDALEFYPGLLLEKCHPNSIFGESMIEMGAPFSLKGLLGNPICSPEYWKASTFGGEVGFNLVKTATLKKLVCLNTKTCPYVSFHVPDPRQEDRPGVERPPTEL

[7] = test system: Candida albicans (ATCC 90028); assay: Antifungal screening (CO-ADD), growth inhibition at single concentration; type: cell-based; settings: ATCC90028, at 32 µg/mL concentration, read-out: growth inhibition % Ca (C. albicans)
Experimental: as §1

[8] = test system: carrageenan-induced rat paw edema; assay: Carrageenan-induced rat paw edema assay; type: in vivo; settings: for Edema thickness (mm) ± SEM: n = 4
Experimental: Pretreatment of rats with compounds 7a–k, 8a–c, and 9a–c before injection with carrageenan in rat paw which induces inflammation and then the percentage of paw edema reduction was measured after certain hours according to previously reported procedures.

[9] = test system: E. coli; assay: Minimal inhibitory concentration measurement; type: cell-based; settings: Escherichia coli; read-out: MIC Ec (E. coli)
Experimental: (§2) The antimicrobial and antifungal screening was performed according to CO-ADD (The Community for Antimicrobial Drug Discovery) procedures [27].

[10] = test system: P. aeruginosa; assay: Minimal inhibitory concentration measurement; type: cell-based; settings: Pseudomonas aeruginosa; read-out: MIC Pa (P. aeruginosa)
Experimental: as §2

[11] = test system: MRSA; assay: Minimal inhibitory concentration measurement; type: cell-based; settings: Staphylococcus aureus, read-out: MIC Sa (MRSA)
Experimental: as §2

[12] = test system: A. baumannii; assay: Minimal inhibitory concentration measurement; type: cell-based; settings: Acinetobacter baumannii; read-out: MIC Ab (A. baumannii)
Experimental: as §2

[13] = test system: C. albicans; assay: Minimal inhibitory concentration measurement; type: cell-based; settings: Candida albicans; read-out: MIC Ca (C. albicans)
Experimental: as §2

[14] = test system: C. neoformans var. grubii; assay: Minimal inhibitory concentration measurement; type: cell-based; settings: Cryptococcus neoformans; read-out: MIC Cn (C. neoformans var. grubii)
Experimental: as §2

[15] = test system: Escherichia coli (ATCC 25922); assay: Antimicrobial screening (CO-ADD), growth inhibition at single concentration; type: cell-based; settings: ATCC25922, at 32 µg/mL concentration, read-out: growth inhibition % Ec (E. coli)
Experimental: as §1

SMILES	melting point [°C]	Selectivity index (SI) [1]	inhibition at 32 µg/mL [2] [%]	inhibition at 32 µg/mL [3] [%]	inhibition at 32 µg/mL [4] [%]	inhibition at 32 µg/mL [5] [%]	IC50 [6] [µM]	inhibition at 32 µg/mL [7] [%]	Edema inhibition % ([8]; 1 h) [%]	Edema inhibition % ([8]; 3 h) [%]	Edema thickness (mm) ± SEM ([8]; 3 h) [mm]	Edema inhibition % ([8]; 6 h) [%]	Edema thickness (mm) ± SEM ([8]; 6 h) [mm]	Edema thickness (mm) ± SEM ([8]; 1 h) [mm]	further results
CS(=O)(=O)c1ccc(-c2[nH]c3ccc(F)cc3c2C=NO)cc1 [Compound 9b, 5-Fluoro-2-(4-(methylsulfonyl)phenyl)-1H-indole-3-carbaldehyde oxime]	226 to 228	44.85	7.9	10.3	9.23	33.3	9.42	2.47	66.2	80.5	0.700 ± 0.024	73.4	0.726 ± 0.055		
CS(=O)(=O)c1ccc(-c2[nH]c3ccc(F)cc3c2-c2nc3cc(Cl)ccc3[nH]2)cc1 [Compound 8b, 5-Chloro-2-(5-fluoro-2-(4-(methylsulfonyl)phenyl)-1H-indol-3-yl)-1H-benzo[d] imidazole]	202 to 204	62.73	14.5	11.3	6.56	22.4	9.41	13.2	52.1	68.1	0.712 ± 0.066	76.2	0.451 ± 0.013	1.256 ± 0.074	
Cc1ccc(NN=Cc2c(-c3ccc(S(C)(=O)=O)cc3)[nH]c3ccc(F)cc23)cc1 [Compound 7k, 5-Fluoro-2-(4-(methylsulfonyl)phenyl)-3-((2-(p-tolyl)hydrazono)methyl)-1H-indole]	151 to 153	39.20	2.23	28.2	8.77	31.4	8.24	1.79	55.7	69.1	0.689 ± 0.011	66.3	0.638 ± 0.051	1.162 ± 0.088	
CO/N=C(\C(=O)N[C@@H]1C(=O)N2C(C(=O)O)=C(CSc3nc(=O)c(=O)[nH]n3C)CS[C@H]12)c1csc(N)n1 [Ceftriaxone, ceftriaxone, reference compound]															MIC [9]: 0.125 µg/mL (≈ 0.225 µM); MIC [10]: 32 µg/mL (≈ 57.7 µM); MIC [11]: 32 µg/mL (≈ 57.7 µM); MIC [12]: 32 µg/mL (≈ 57.7 µM)
CS(=O)(=O)c1ccc(N/N=C/c2c(-c3ccc(S(C)(=O)=O)cc3)[nH]c3ccc(F)cc23)cc1 [Compound 7h, 5-Fluoro-2-(4-(methylsulfonyl)phenyl)-3-((2-(4-(methylsulfonyl)phenyl) hydraz-ono)methyl)-1H-indole]	187 to 188	112.7 and 112.72	7.97	30.3	23.6	51.8	12.4	25.3	75.4	89.4	0.236 ± 0.008	92.7	0.138 ± 0.006	0.645 ± 0.058	
CS(=O)(=O)c1ccc(-c2[nH]c3ccccc3c2C=NO)cc1 [Compound 9a, 2-(4-(Methylsulfonyl)phenyl)-1H-indole-3-carbaldehyde oxime]	199 to 201	81.84	2.49		14.8	42.1	10.6	9.15	77.2	61.8	0.852 ± 0.073	62.3	0.714 ± 0.052	0.598 ± 0.050	
C[C@@H]1[C@H](O)[C@@H](C)/C=C/C=C/C=C/C=C/C=C/C=C/C=C/[C@H](O[C@@H]2O[C@H](C)[C@@H](O)[C@H](N)[C@@H]2O)C[C@@H]2O[C@](O)(C[C@@H](O)C[C@@H](O)[C@H](O)CC[C@@H](O)C[C@@H](O)CC(=O)O[C@H]1C)C[C@H](O)[C@H]2C(=O)O [Amphotericin B, amphotericin B, reference compound]															MIC [13]: 1.56 µg/mL (≈ 1.69 µM); MIC [14]: 1.56 µg/mL (≈ 1.69 µM)
CS(=O)(=O)c1ccc(-c2[nH]c3ccccc3c2C=NNc2ccc(S(N)(=O)=O)cc2)cc1 [Compound 7c, 4-(2-((2-(4-(Methylsulfonyl)phenyl)-1H-indol-3-yl)methylene)hydrazinyl)benzene sulfonamide]	203 to 204	103.7 and 103.72	11.3	21.9	12.8	43.3	11.4	4.13	62.7	81.2	0.419 ± 0.028	82.5	0.331 ± 0.011	0.978 ± 0.071	inhibition at 32 µg/mL [15]: 3.17%
